According to ChEMBL document CHEMBL1201862, “PubChem BioAssay data set” (2004):
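1) Cells in 96-well plates. 2) Compound, 48 h, 5 concentrations. 3) Linear interpolation between surrounding doses. 4) Unreached endpoint = highest concentration. Here, GI50 denotes the concentration required for 50% inhibition of growth.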 Activity calls are given as the source filed them. Rule as the data show it: active = GI50 up to about 1.1 µM and inactive = higher.

How the values were obtained:
Assay in all cases: NCI tumour cell line growth inhibition, 48 h
SK-MEL-5 = tested on: SK-MEL-5
RXF 393 = tested on: RXF 393
U-251 = tested on: U-251
NCI-H522 = tested on: NCI-H522
SK-OV-3 = tested on: SK-OV-3
HOP-92 = tested on: HOP-92
SR = tested on: SR
Hs-578T = tested on: Hs-578T
MOLT-4 = tested on: MOLT-4
SW-620 = tested on: SW-620
BT-549 = tested on: BT-549
NCI-H460 = tested on: NCI-H460
COLO 205 = tested on: COLO 205
HL-60 = tested on: HL-60
HOP-62 = tested on: HOP-62
SF-268 = tested on: SF-268
OVCAR-3 = tested on: OVCAR-3
A498 = tested on: A498
RPMI-8226 = tested on: RPMI-8226
HCT-15 = tested on: HCT-15
MDA-N = tested on: MDA-N
SN12C = tested on: SN12C
HT-29 = tested on: HT-29
Malme-3M = tested on: Malme-3M
T47D = tested on: T47D
UO-31 = tested on: UO-31
CAKI-1 = tested on: CAKI-1
IGROV-1 = tested on: IGROV-1
SK-MEL-2 = tested on: SK-MEL-2
SF-539 = tested on: SF-539
MCF7 = tested on: MCF7
SF-295 = tested on: SF-295
MDA-MB-435 = tested on: MDA-MB-435
A549 = tested on: A549
TK-10 = tested on: TK-10
786-0 = tested on: 786-0
DU-145 = tested on: DU-145
ACHN = tested on: ACHN
UACC-257 = tested on: UACC-257
NCI-H23 = tested on: NCI-H23
SNB-19 = tested on: SNB-19
LOX IMVI = tested on: LOX IMVI
M14 = tested on: M14
KM12 = tested on: KM12
HCC 2998 = tested on: HCC 2998
MDA-MB-231 = tested on: MDA-MB-231
OVCAR-8 = tested on: OVCAR-8
NCI/ADR-RES = tested on: NCI/ADR-RES
UACC-62 = tested on: UACC-62
OVCAR-5 = tested on: OVCAR-5
HCT-116 = tested on: HCT-116
NCI-H226 = tested on: NCI-H226
PC-3 = tested on: PC-3
SK-MEL-28 = tested on: SK-MEL-28
OVCAR-4 = tested on: OVCAR-4
SNB-75 = tested on: SNB-75
CCRF-CEM = tested on: CCRF-CEM
EKVX = tested on: EKVX
K562 = tested on: K562

Measured: GI50

O=C(/C=C/c1ccccc1)Oc1cccc(O)c1
inactive: SK-MEL-5 37.5 µM | RXF 393 > 100 µM | U-251 34.3 µM | NCI-H522 6.81 µM | SK-OV-3 > 100 µM | HOP-92 > 100 µM | SR 18.2 µM | Hs-578T 25.9 µM | MOLT-4 6.03 µM | SW-620 18.3 µM | BT-549 > 100 µM | NCI-H460 > 100 µM | COLO 205 55 µM | HL-60 16.9 µM | HOP-62 53.6 µM | SF-268 15.5 µM | OVCAR-3 73.8 µM | A498 > 100 µM | RPMI-8226 9.55 µM | MDA-N 57.8 µM | SN12C 44.1 µM | HT-29 37.2 µM | Malme-3M 19.5 µM | T47D 59.6 µM | UO-31 > 100 µM | CAKI-1 49.1 µM | IGROV-1 17.3 µM | SK-MEL-2 > 100 µM | SF-539 > 100 µM | MCF7 38.7 µM | SF-295 17.8 µM | MDA-MB-435 > 100 µM | A549 46 µM | TK-10 > 100 µM | 786-0 77.8 µM | DU-145 80.7 µM | ACHN > 100 µM | UACC-257 > 100 µM | NCI-H23 63.8 µM | SNB-19 20.2 µM | LOX IMVI 27.5 µM | M14 43.1 µM | KM12 19.1 µM | HCC 2998 > 100 µM | MDA-MB-231 47.9 µM | OVCAR-8 44.3 µM | NCI/ADR-RES 42.8 µM | UACC-62 > 100 µM | OVCAR-5 30.3 µM | HCT-116 16.4 µM | NCI-H226 > 100 µM | PC-3 > 100 µM | SK-MEL-28 23.6 µM | OVCAR-4 36.3 µM | SNB-75 65 µM
16.6 µM: HCT-15

COc1ccc(OC)c(NS(=O)(=O)c2ccc3nc(C)n(NS(=O)(=O)c4cc(OC)ccc4OC)c(=O)c3c2)c1
> 100 µM: HCT-15
inactive: SK-MEL-5 26.4 µM | RXF 393 > 100 µM | U-251 > 100 µM | NCI-H522 > 100 µM | SK-OV-3 > 100 µM | HOP-92 > 100 µM | SR 14.8 µM | Hs-578T > 100 µM | MOLT-4 15.2 µM | SW-620 96.4 µM | BT-549 70.1 µM | CCRF-CEM 75.7 µM | NCI-H460 82.4 µM | COLO 205 > 100 µM | HL-60 26.2 µM | HOP-62 > 100 µM | SF-268 > 100 µM | OVCAR-3 > 100 µM | A498 > 100 µM | EKVX > 100 µM | RPMI-8226 20.8 µM | MDA-N 41.7 µM | SN12C > 100 µM | HT-29 74.8 µM | Malme-3M > 100 µM | T47D > 100 µM | UO-31 87.9 µM | CAKI-1 > 100 µM | IGROV-1 > 100 µM | SK-MEL-2 > 100 µM | SF-539 > 100 µM | MCF7 87.1 µM | SF-295 > 100 µM | MDA-MB-435 14.3 µM | TK-10 > 100 µM | 786-0 > 100 µM | DU-145 > 100 µM | K562 32.6 µM | ACHN > 100 µM | UACC-257 > 100 µM | NCI-H23 69.5 µM | SNB-19 > 100 µM | LOX IMVI 77.6 µM | M14 > 100 µM | KM12 62.5 µM | HCC 2998 38.6 µM | MDA-MB-231 > 100 µM | OVCAR-8 > 100 µM | NCI/ADR-RES > 100 µM | UACC-62 > 100 µM | OVCAR-5 > 100 µM | HCT-116 21.7 µM | NCI-H226 > 100 µM | PC-3 78.9 µM | SK-MEL-28 > 100 µM | OVCAR-4 93.3 µM | SNB-75 > 100 µM
